Laboratory results published in ChEMBL document CHEMBL4806962, “Methods and Compositions for Treating Cancer” (2020).
Calls of active or inactive are those of the source. The rule behind the calls is not given here.

Tested on: Splenocyte
Experiment: Effects of compound on IL-2 production in anti-CD3/CD28-stimulated wild type mouse spleenocytes assessed as fold increase in IL-2 level at 0.3 uM after 2 days in presence of […] and NECA
Assay type: functional
Conditions: time 2 day

| SMILES | fold change (FC) |
| --- | --- |
| O=C(c1ccccc1)N1CCN(c2cc(N3CCCCC3)c(F)cc2[N+](=O)[O-])CC1 | 4.9 |

Tested on: not listed separately
Experiment: Effects of compound on IL-2 production in anti-CD3/CD28-stimulated human PBMCs assessed as fold increase in IL-2 level at 10 uM after 24 hrs by ELISA
Assay type: functional, PBMC
Conditions: not given

| SMILES | fold change (FC) |
| --- | --- |
| Nc1ncnc2c1ncn2[C@@H]1O[C@H](COP(=O)(O)CP(=O)([O-])O)[C@@H](O)[C@H]1O.[Na+] | 1.5 |

Biological target: T1, Probable G-protein coupled receptor 174 (Homo sapiens, UniProt Q9BXC1)
T1 sequence (Q9BXC1 whole entry): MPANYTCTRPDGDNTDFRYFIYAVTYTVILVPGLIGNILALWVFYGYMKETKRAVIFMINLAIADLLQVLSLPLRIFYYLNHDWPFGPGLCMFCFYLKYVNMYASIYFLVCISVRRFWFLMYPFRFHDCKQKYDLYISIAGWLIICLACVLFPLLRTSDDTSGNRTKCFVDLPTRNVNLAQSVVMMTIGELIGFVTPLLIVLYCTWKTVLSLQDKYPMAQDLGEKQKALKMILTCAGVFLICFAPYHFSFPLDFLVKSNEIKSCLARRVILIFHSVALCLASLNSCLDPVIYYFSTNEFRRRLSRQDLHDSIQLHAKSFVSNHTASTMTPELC
Experiment: Antagonist activity at human GPR174 by CRA
Assay type: functional
Conditions: not given

| EC50 | SMILES |
| --- | --- |
| 500 nM | Cc1ccccc1Nc1nnc(-c2ccc(C)c(S(N)(=O)=O)c2)c2ccccc12 |

Tested on: Splenocyte
Experiment: Effects of compound on IL-2 production in anti-CD3/CD28-stimulated wild type mouse spleenocytes assessed as fold increase in IL-2 level at 0.3 uM after 2 days in presence of NECA
Assay type: functional
Conditions: time 2 day

| SMILES | fold change (FC) |
| --- | --- |
| O=C(c1ccccc1)N1CCN(c2cc(N3CCCCC3)c(F)cc2[N+](=O)[O-])CC1 | 1.7 |

Biological target: T1, Probable G-protein coupled receptor 174
Experiment: Inverse agonist activity at human GPR174 assessed as fold decrease in Gs signalling activity by CRA
Assay type: functional
Conditions: filed as inverse agonist

| fold change (FC) | SMILES |
| --- | --- |
| 1.7 | Cc1ccc(S(=O)(=O)N2CCN(c3cc(N4CCCCC4)c(F)cc3[N+](=O)[O-])CC2)cc1 |
| 1 | COc1ccc(C2C3=C(CCCC3=O)NC3=C2C(=O)c2ccccc23)cc1 (stereo unspecified) |
| 3.3 | CS(=O)(=O)c1ccc(C2C3=C(CCCC3=O)NC3=C2C(=O)c2ccccc23)cc1 (stereo unspecified) |
| 1.2 | CCCCOc1ccc(C2C3=C(CCCC3=O)NC3=C2C(=O)c2ccccc23)cc1 (stereo unspecified) |
| 1 | O=C1CCCC2=C1C(c1ccc(OC3CCCC3)cc1)C1=C(N2)c2ccccc2C1=O (stereo unspecified) |
| 2 | CCc1ccc(C2C3=C(CCCC3=O)NC3=C2C(=O)c2ccccc23)cn1 (stereo unspecified) |
| 0.9 | CCCC(=O)N1CCN(c2cc(N3CCCCC3)c(F)cc2[N+](=O)[O-])CC1 |
| 0.4 | CC1CCN(c2cc(N3CCN(C(=O)c4cccs4)CC3)c([N+](=O)[O-])cc2F)CC1 |
| 0.4 | CCC(=O)N1CCN(c2cc(N3CCC(C)CC3)c(F)cc2[N+](=O)[O-])CC1 |
| 1.2 | C=CCOc1ccc(C2C3=C(CCCC3=O)NC3=C2C(=O)c2ccccc23)cc1 (stereo unspecified) |
| 0.5 | C=C(C)COc1ccc(NC(=O)Nc2ccccc2)cc1 |
| 1.6 | CCOc1cccc(C2C3=C(CCCC3=O)NC3=C2C(=O)c2ccccc23)c1 (stereo unspecified) |
| 1.1 | Cc1ccc(S(=O)(=O)N2CCN(c3cc(N4CCC(C)CC4)c(F)cc3[N+](=O)[O-])CC2)cc1 |
| 0.5 | CCC(=O)N1CCN(c2cc(N3CCCCC3)c(F)cc2[N+](=O)[O-])CC1 |
| 1.3 | CC(C)(C)Oc1ccc(C2C3=C(CCCC3=O)NC3=C2C(=O)c2ccccc23)cc1 (stereo unspecified) |
| 3 | O=C1CCCC2=C1C(c1ccc(Cl)cc1)C1=C(N2)c2ccccc2C1=O (stereo unspecified) |
| 1.2 | CC(C)c1ccc(C2C3=C(CCCC3=O)NC3=C2C(=O)c2ccccc23)cc1 (stereo unspecified) |
| 0.5 | CCCCCCOc1ccc(C2C3=C(CCCC3=O)NC3=C2C(=O)c2ccccc23)cc1 (stereo unspecified) |
| 0.5 | O=[N+]([O-])c1cc(F)c(N2CCCCC2)cc1N1CCN(S(=O)(=O)c2ccccc2)CC1 |
| 0.8 | CC(C)C(=O)N1CCN(c2cc(N3CCCCC3C)c(F)cc2[N+](=O)[O-])CC1 (stereo unspecified) |

| fold change (FC) | SMILES |
| --- | --- |
| 2.6 | O=C1CCCC2=C1C(c1ccc3c(c1)OCCO3)C1=C(N2)c2ccccc2C1=O (stereo unspecified) |
| 0.8 | CC(=O)N1CCN(c2cc(N3CCC(C)CC3)c(F)cc2[N+](=O)[O-])CC1 |
| 4.4 | O=C1CCCC2=C1C(c1ccc(OCCO)cc1)C1=C(N2)c2ccccc2C1=O (stereo unspecified) |
| 2.8 | Cc1nnc(-c2ccc(C3C4=C(CCCC4=O)NC4=C3C(=O)c3ccccc34)cc2)o1 (stereo unspecified) |
| 1 | O=C1CCCC2=C1C(c1ccc(Oc3ccccc3)cc1)C1=C(N2)c2ccccc2C1=O (stereo unspecified) |
| 0.6 | CCOc1ccc(C2C3=C(CCCC3=O)NC3=C2C(=O)c2ccccc23)cn1 (stereo unspecified) |
| 0.4 | CCOc1ccc(C2C3=C(CCCC3=O)NC3=C2C(=O)c2ccccc23)cc1 (stereo unspecified) |
| 0.3 | O=C(c1ccccc1)N1CCN(c2cc(N3CCCCC3)c(F)cc2[N+](=O)[O-])CC1 |
| 0.3 | CCOC(=O)N1CCN(c2cc(N3CCCCC3)c(F)cc2[N+](=O)[O-])CC1 |
| 2.7 | O=C1CCCC2=C1C(c1ccc([N+](=O)[O-])cc1)C1=C(N2)c2ccccc2C1=O (stereo unspecified) |
| 1 | CCOC(=O)N1CCN(c2cc(N3CCCCC3C)c(F)cc2[N+](=O)[O-])CC1 (stereo unspecified) |
| 1.2 | O=C1CCCC2=C1C(c1ccc(OC(F)(F)F)cc1)C1=C(N2)c2ccccc2C1=O (stereo unspecified) |
| 0.5 | CCc1ccc(C2C3=C(CCCC3=O)NC3=C2C(=O)c2ccccc23)cc1 (stereo unspecified) |
| 1.8 | O=[N+]([O-])c1cc(F)c(N2CCCCCC2)cc1N1CCN(S(=O)(=O)c2ccccc2)CC1 |
| 2.5 | O=C1CCCC2=C1C(c1ccc(-c3ccccc3)cc1)C1=C(N2)c2ccccc2C1=O (stereo unspecified) |
| 0.4 | CCOC(=O)N1CCN(c2cc(N3CCC(C)CC3)c(F)cc2[N+](=O)[O-])CC1 |
| 1.2 | O=C1CCCC2=C1C(c1ccc(OC(F)F)cc1)C1=C(N2)c2ccccc2C1=O (stereo unspecified) |
| 0.6 | CC(C)Oc1ccc(C2C3=C(CCCC3=O)NC3=C2C(=O)c2ccccc23)cc1 (stereo unspecified) |
| 1 | CCCOc1ccc(C2C3=C(CCCC3=O)NC3=C2C(=O)c2ccccc23)cc1 (stereo unspecified) |

| SMILES | fold change (FC) |
| --- | --- |
| CC(=O)N1CCN(c2cc(N3CCCCC3)c(F)cc2[N+](=O)[O-])CC1 | 0.3 |

Tested on: PBMC
Experiment: Effects of compound on IL-2 production in anti-CD3/CD28-stimulated human PBMCs assessed as increase in IL-2 level after 2 days by ELISA
Assay type: functional, tissue-based
Conditions: dose 1-10 µM, time 2.0 day

| SMILES | Activity |
| --- | --- |
| O=C(c1ccccc1)N1CCN(c2cc(N3CCCCC3)c(F)cc2[N+](=O)[O-])CC1 | Dose-Dependent Effect |

Tested on: Splenocyte
Experiment: Effects of compound on IL-2 production in anti-CD3/CD28-stimulated GPR174 knock out mouse spleenocytes assessed as fold increase in IL-2 level at 0.3 uM after 2 days in presence of NECA
Assay type: functional, cell-based
Conditions: time 2.0 day

| SMILES | Activity |
| --- | --- |
| O=C(c1ccccc1)N1CCN(c2cc(N3CCCCC3)c(F)cc2[N+](=O)[O-])CC1 | inactive |
